According to patent publication US20190275003A1, “ENCAPSULATION OF PHOSPHODIESTERASE INHIBITORS TO TREAT ALCOHOLIC LIVER DISEASE” (University of Louisville Research Foundation, Inc., priority 2016, published 2019):

Columns and labels:
[1] = system: liver injury and fibrosis; conditions: several animal models; cited from earlier work
alcoholic hepatitis = conditions: human clinical studies; cited from earlier work
[2] = system: mouse aortic endothelial cells (MAECs); test: Fusion rate of rolipram-loaded vesicles to MAECs; format: cell-based
Source text: FIGS. 8A-B show the fusion rate of FLVs-Rolipram to RAW cells and mouse aortic endothelial cells (MAECs) in the presence or absence of excipients in the vehicle. Using fluorescent-labeled FLVs and a Nanoparticle Tracking Analysis instrument to quantify FLV numbers, the fusion rate of vesicles to RAW cells was quantified over time. (A) Lipid vesicles formulated with DOPC/POPA (3:2) loaded with rolipram (DOPC:POPA-R) fused to RAW cells at a faster rate than DOPC vesicles loaded with rolipram (DOPC). […] FLVs=fusogenic lipid vesicles, SOA=Sucrose octaacetate, SAIB=acetate isobutyrate.
Studies quantifying the fusion rate of vesicles loaded with rolipram to RAW or mouse aortic endothelial cells (MAECs) were performed. In the first experiment, the fusion rate of lipid vesicles to RAW cells using a highly fusogenic vesicle formulated with DOPC/POPA was compared to less fusogenic vesicle formulated with DOPC (FIG. 8A). […] In the second experiment, the fusion rate of FLVs to MAECs using the excipients sucrose octaacetate (SOA) or SAIB and the same vesicle lipid formulations as in the experiment above were performed. […] Also, SOA an excipient used to enhance the stability of FLVs-rolipram during storage appears to augment the fusion rate of FLVs.

[3] = Encapsulation efficiency of rolipram in FLVs; format: physicochemical; conditions: FLVs 10 mg/mL lipid, rolipram 0.75 mg/mL, diluted 5 or 10 times
Description: FIGS. 5A-C show the encapsulation efficiency percent of rolipram when 10 (A), 12.5 (B) and 15 mg/mL of FLV lipid (C) was hydrated with buffer containing 0.75 mg/mL of rolipram and diluted in water five or 10 times. The percentage of free rolipram in buffer was calculated by measuring the amount of free drug in buffer after FLVs in solution were filtered out. More than 50% of drug remained encapsulated with either of the dilutions over time. The amount of rolipram associated with FLVs appeared to fluctuate over time but it stabilized at the end of […]. FLVs=fusogenic vesicles.
After dilution the rolipram EE % of FLVs was similar when either excipient or no excipient was utilized. FLVs=fusogenic lipid vesicles, SOA=Sucrose octaacetate, SAIB=acetate isobutyrate.
To evaluate the ability of the FLVs to retain rolipram in an aqueous system, 0.75 mg/mL of rolipram was loaded into the lipid bilayer and internal liquid compartment of FLVs using four concentrations of lipid: 5, 10, 12.5, and 15 mg/ml. The rolipram encapsulation efficiency was quantified.
To evaluate the effect of dilution on encapsulation efficiency of FLVs-rolipram, different concentrations of FLV lipid (10, 12.5 and 15 mg/ML) were hydrated with the same amount of rolipram (0.75 mg/mL) and then diluted in water 5 and 10 times. Rolipram levels in the external buffer compartment were measured over a 90 min period. […]

TNF [4] = test: LPS mediated TNF expression in ethanol treated cells; format: cell-based; conditions: data not shown
Source text: Studies in monocytes have shown that cAMP plays an important role in regulating TNF expression, and that the elevation of cellular cAMP suppresses TNF production. Therefore, the instant inventors evaluated (1) the effects of chronic ethanol exposure on the cellular levels of cAMP, and (2) TNF expression in monocytes in vitro and in rat primary hepatic Kupffer cells obtained from a clinically relevant enteral alcohol feeding model of alcoholic liver disease (ALD). […] Consistent with these decreased cAMP levels, ethanol led to an increase in LPS-inducible TNF mRNA expression (FIG. 2) and TNF protein, without any change in the TNF mRNA stability (data not shown). Enhancement of cellular cAMP with dbcAMP abrogated LPS mediated TNF expression in ethanol treated cells (data not shown).

[5] = system: α2-adrenoceptor-mediated xylazine/ketamine-induced anesthesia; test: Duration of xylazine/ketamine anesthesia (behavioral correlate of emesis); format: in vivo, male C57BL/6 mice; conditions: free rolipram IV, mean of the 3 groups (1.6, 3.3 and 6.6 mg/kg bw); paired control 75.1±4.7 min
Description: FLVs-Rol=Fusogenic lipid vesicles-rolipram.
Safety pharmacology studies were conducted to determine the dose-response relationship of adverse effects observed by rolipram. The primary side effect of rolipram is the inhibition of PDE4 activity in the CNS, which leads to emesis in humans. The mechanism of the emetic response associated with PDE4 inhibitors is thought to produce a pharmacological response analogous to that of presynaptic α2-adrenoceptor inhibition, by elevating intracellular levels of cAMP in noradrenergic neurons. Consequently, PDE4 inhibitors remove an inhibitory mechanism that modulates the release of mediators (5-HT, substance P, noradrenaline) involved in the onset of the emetic reflex. […]
Since rodents are a non-vomiting species, examining rolipram-induced side effects in rodents is particularly difficult.^34-36 To circumvent this problem, a behavioral correlate of emesis model in mice was utilized.^35 In this model, rolipram is used to reverse the duration of α2-adrenoceptor-mediated xylazine/ketamine-induced anesthesia, which is temporally quantified by the return of the righting reflex. […] After 15 min, the mice were placed on a controlled heating pad in the dorsal recumbent position and the duration of anesthesia was determined by timing the return of the righting reflex. […]

TNF [6] = test: LPS-stimulated TNF expression in human PBMCs pre-treated with rolipram; format: cell-based
Description: PBMCs isolated from a healthy individual were pre-treated with rolipram (1, 5, and 10 μM) for 30 minutes and further stimulated with LPS (1 μg/ml) for 6 hours. Cell-free supernatants were analyzed for TNF expression by ELISA. Rol=rolipram. TNF=tumor necrosis factor-alpha, FLVs=fusogenic lipid vesicles.
The effect of chronic ethanol exposure on PDE4 gene expression and activity in human THP-1 and mouse RAW macrophages was evaluated next, as a mechanism for the decreased intracellular cAMP levels and the increased LPS-stimulated TNF.^4 PDE4 (predominantly present in monocytes) degrades and inactivates cAMP, with PDE4B playing a critical role in LPS signaling. It was shown that chronic alcohol increased LPS-inducible PDE4B mRNA expression (FIG. 2).

[7] = system: cholestatic liver injury and fibrosis; conditions: rat, in vivo; cited from earlier work
[8] = system: TNF production in RAW 264.7 cells; test: RAW cell assay: LPS-induced TNF production (ELISA); format: cell-based, mouse; conditions: LPS 100 ng/mL 18 h, SAIB 0.5 mg/mL, FLVs 10 mg/mL lipid
Description: Cells were treated with SAIB (0.5 mg/mL), FLVs (10 mg/mL of lipid) with SAIB (FLV-SAIB) or FLVs-rolipram 0.75 mg/mL (FLV-Rol) without SAIB and stimulated with LPS (100 ng/mL) for 18 h. The effect of SAIB was evaluated by quantifying TNF production using an ELISA kit. SAIB alone appears to exert a beneficial effect, and FLVs with SAIB have a greater beneficial effect. FLVs=fusogenic lipid vesicles, LPS=endotoxin, SAIB=acetate isobutyrate.
Cells were treated with 0.73 mg/mL rolipram (Rol), FLVs only, or 0.73 mg/mL of FLVs-rolipram (FLVs-Rol) and stimulated with LPS (100 ng/mL) for 24 h. Control cells received treatment but no LPS. TNF in media was measured using an ELISA kit. UT=untreated cells, FLVs=fusogenic vesicles, LPS=endotoxin.
The effect of adding SAIB (0.5 mg/mL) to the vehicle was tested in vitro using RAW cells pulsed with LPS (100 ng/mL) and evaluated for TNF production. Rolipram (0.75 mg/mL) encapsulated in of 10 mg/mL of lipid without SAIB was used as a control.
An in vitro screening assay to evaluate the effectiveness of the FLVs-rolipram formulations was developed. The assay uses a murine macrophage cell line (RAW 264.7 cells), which produces high levels of TNF in response to LPS stimulation. […] After 24 h, TNF protein was measured in cell free supernatant by ELISA kit (FIG. 14).

For `CC(=O)CCCCn1c(=O)c2c(ncn2C)n(C)c1=O` [Pentoxifylline], the “liver injury and fibrosis” value [1] is given as “attenuate liver injury and fibrosis” and the “mortality in patients with AH” value (alcoholic hepatitis) is given as “decreased mortality”.
In the case of `CC(=O)OC[C@H]1O[C@@](COC(C)=O)(O[C@H]2O[C@H](COC(C)=O)[C@@H](OC(C)=O)[C@H](OC(C)=O)[C@H]2OC(C)=O)[C@@H](OC(C)=O)[C@@H]1OC(C)=O` [SOA, sucrose octaacetate], the “effect of excipient on fusion rate of DOPC/POPA FLVs-rolipram to MAECs” value [2] is reported as “enhanced the fusion rate” and the “effect of excipient on rolipram encapsulation efficiency” value [3] is reported as “did not significantly alter”.
With `CCCC(=O)Nc1ncnc2c1ncn2[C@@H]1O[C@@H]2COP(=O)(O)O[C@H]2[C@H]1OC(=O)CCC` [dbcAMP] the “LPS mediated TNF expression” value (TNF [4]) was “abrogated”.
In the case of `COc1ccc(C2CNC(=O)C2)cc1OC1CCCC1` (stereo not drawn) [rolipram, 4-(3-Cyclopentyloxy-4-methoxy-phenyl) pyrrolidin-2-one], the mean anesthesia time [5] is reported as 48.6 ± 5.5 min, the “TNF mRNA” value (TNF [6]; human PBMCs stimulated with LPS, data not shown) is reported as “significantly downregulated” and the TNF protein (TNF [6]; human PBMCs, rolipram 1, 5, 10 μM 30 min, LPS 1 μg/ml 6 h, ELISA, dose-dependent) is reported as “significantly downregulated”. The “protection against cholestatic liver injury and fibrosis” value [7] was “significant protection”.
For sucrose acetate isobutyrate [SAIB], the “effect of excipient on fusion rate of DOPC/POPA FLVs-rolipram to MAECs” value [2] was “appeared to decrease the fusion rate”, the “effect of excipient on rolipram encapsulation efficiency” value [3] was “did not significantly alter” and the TNF production [8] was “reduced the effect of LPS”.
